Results: patent publication US12552760B2, “Compounds for increasing the nicotinamide adenine dinucleotide in a subject and methods of use thereof” (The Board of Trustees of the University of Illinois, priority 2022, dated 2026)
Entries after “also recorded” stand apart in the source; their conditions may differ.

What was measured:
[1] = tested on: Tg2576/PGC-1α knockout mice; details: 250 mg/kg/d (p.o) 3 months; Gong, B. et al. 2013; cited from earlier work
[2] = tested on: 3xTgAD, and 3xTgAD/Polβ^+/− mice; details: 12 mM in drinking water p.o. 6 months; Hou, Y. et al. 2018; cited from earlier work
Csb^m/m mice = details: 500 mg/kg/d (i.p.) 1 week; Scheibye-Knudsen, M. et al. 2014; cited from earlier work
APPSwe/PSEN1dE9 mice = details: 400 mg/kg/d (p.o.) 10 weeks; Sorrentino, V. et al. 2017; cited from earlier work
GMC101 worms = details: 1 mM, 1-8 days; Sorrentino, V. et al. 2017; cited from earlier work
[3] = tested on: hSOD1^G93A mouse derived astrocytes and motor neurons; details: NR or NMN, 5 mM, 24-72 h; Harlan, B. A. et al. 2019; cited from earlier work
NAMPT = target: T1, NAMPT (Homo sapiens, UniProt P43490); experiment: NAMPT coupled enzyme activity assay (HTS coupled three-enzyme assay); format: biochemical; details: dose-response (FIG. 1B)
T1 construct: His6 (C); made in house
Description: NAMPT coupled enzyme activity assay. The NAMPT enzyme assay is based on conditions from Burgos and Schramm and adapted to include a cycling reaction to quantitate NAD^+ production colorimetrically^1. The assay follows the NAMPT-catalyzed production of NMN from substrates NAM and PRPP by coupling NMN formation to the NMNAT reaction, which produces NAD^+ from NMN and ATP. The NAD^+ is then cycled by alcohol dehydrogenase (ADH) and diaphorase to continuously produce WST-1 formazan, which can be detected at 450 nm. Assays are performed at 25° C. in clear 384-well plates, with a final assay volume of 30 μL, and contain the following: 50 mM HEPES, pH 7.5, 5 mM MgCl2, 50 mM NaCl, 0.01% Triton-X 100, 2.5 mM ATP, 40 μM PRPP, 1-500 μM NAM, 1.5 μL WST-1 (Roche Cell Proliferation Reagent), 1 U/mL ADH, 0.083 U/mL diaphorase, 1.5% ethanol, 1% DMSO, 30 nM NAMPT, and 7.4 nM purified human NMNAT1. N-terminal His6-NMNAT1 and C-terminal His6-NAMPT were overexpressed and purified by metal chelate affinity chromatography. Following assay assembly, well signals were measured continuously at 450 nm on a Tecan Infinite M200 plate reader for 1 h with intermittent shaking. Slopes of the linear portions of the reaction progress curves were recorded and corrected for background by subtracting the average slope of control wells containing NAMPT inhibitor FK866.
A high-throughput screen (HTS) of 22,000 compounds was performed to identify those that augment NAMPT enzymatic activity^38. Screening used a coupled three-enzyme assay to detect conversion of NAM to NAD^+, as previously described by our group^37. […] We also established assays in which to assess the ability of our compounds to mitigate neuronal oxidative stress.

THP-1 human monocytes = experiment: Measurement of cellular NAD^+ levels in THP-1 cell cultures (NAD/NADH-Glo); format: cell-based; details: for potency in THP-1 relative to NP-A3-B2 (cellular EC50 not quantifiable): dose response studies; for ability to raise NAD^+ levels compared to the parent compound NP-A3-B2: initial screening, 3 μM, 24 hours, data not shown
Procedure: Measurement of cellular NAD^+ levels in THP-1 cell cultures. Using FK-866 and NMN as negative and positive controls, respectively, we explored a number of cell lines to select a highly reproducible model system with good dynamic range. We optimized a commercial NAD-glo assay in the THP-1 human leukemic monocyte cell line in 96-well plates, measuring NAD^+ after incubation with test compounds for 24 hours. […] All cells were grown at 37° C., under 5% CO2 in a humidified incubator. Low passage THP-1 cells (37,500 cells/well) were seeded in 96-well plates and incubated at 37° C. and 5% CO2 for 1½ h prior to a 24 h treatment. All compounds were dissolved in DMSO, and final DMSO concentrations never exceeded 1%. The NAD^+ levels in the cells are measured using the NAD^+/NADH-Glo™ assay (Promega). The assays were performed in triplicate for each concentration and the IC50 values were determined from non-linear regression analysis of the dose-response curve generated in GraphPad Prism 9.

[4] = tested on: HT-22 mouse hippocampal cell line; experiment: Glutamate-induced ROS in HT-22 cells (MitoSOX); format: cell-based; details: 75 mM glutamate
Procedure: (§1) Cell Culture and Drug Treatments. HT22 mouse hippocampal neuronal cells (a gift from the Salk Institute) were grown in Dulbecco's modified Eagle's medium (DMEM) containing 10% FBS and 1× Antibiotic-Antimycotic (ABAM). Cells were maintained in a humidified 5% CO2 atmosphere incubator at 37° C., and were passaged when 60-80% confluent (1-2 days) by removing media, rinsing with phosphate buffered saline (PBS), and enzymatically detaching with trypsin solution. New culture dishes were seeded with ¼ to ½ the cells from the previous dish.
All assays were performed using cells with passage number 12-50. […]
Cells were plated at a seeding density of 3,000-5,000 cells/well and allowed to incubate overnight. […] Live cell count, ROS level, and total cell count were then assessed after another 18-24 hours.
ROS Detection. ROS levels were quantified using MitoSOX Red Mitochondrial Superoxide Indicator (Invitrogen). […] The plate was immediately analyzed in the Celigo Imaging Cytometer using the Live-Dead-Total protocol, where MitoSOX was used in place of propidium iodide. The cell counts and fluorescence intensities for living (calcein), MitoSOX-stained, and total (Hoechst) were acquired. MitoSOX average mean fluorescence intensity (“dead” average mean intensity) was used to quantify mitochondrial ROS. All readouts used were transformed into fold-change over vehicle treatment for visualization.

[5] = tested on: HT-22 mouse hippocampal cell line; experiment: TNFα-induced ROS in HT-22 cells (MitoSOX); format: cell-based; details: for effect on ROS levels across tested concentrations: screened against 1 μg/mL TNFα (FIG. 2A)
Procedure: as §1
All assays were performed using cells with passage number 12-50. The inner 60 wells of black-walled (Corning®3603/3604) 96-well plates were treated with poly D-lysine (30 μL/well) making sure to cover the entire well surface for 15-30 seconds and then washed thoroughly with sterile water (3×−200 μL/well). TNFα stock solutions (10 μg/mL, PBS (0.1% BSA)) were made, aliquoted, and stored at −80° C. Glutamate stock solutions were made fresh immediately before assay. All compound stock solutions (10 mM, DMSO) were made and stored at −20° C.
Cells were plated at a seeding density of 3,000-5,000 cells/well and allowed to incubate overnight. The next day (18-24 hours later) cells were pretreated with N-PAMs, carefully ensuring equivalent vehicle (DMSO/PBS) composition in each well. After 18-24 hours, stressors (glutamate or TNFα) were treated. Live cell count, ROS level, and total cell count were then assessed after another 18-24 hours.
ROS Detection. ROS levels were quantified using MitoSOX Red Mitochondrial Superoxide Indicator (Invitrogen). At treatment endpoint, the cell culture media was removed and replaced with phosphate buffered saline (PBS) containing 1 μM calcein-AM, 5 μM MitoSOX, and 10 μg/mL Hoechst dyes. Cells were incubated for 30-45 minutes and then dye-containing PBS was dumped and replaced with 100 μL/well fresh PBS. The plate was immediately analyzed in the Celigo Imaging Cytometer using the Live-Dead-Total protocol, where MitoSOX was used in place of propidium iodide. The cell counts and fluorescence intensities for living (calcein), MitoSOX-stained, and total (Hoechst) were acquired. MitoSOX average mean fluorescence intensity (“dead” average mean intensity) was used to quantify mitochondrial ROS. All readouts used were transformed into fold-change over vehicle treatment for visualization.
We set out to design assays representing the connection between OS and the multifaceted pathophysiology of aging and ND. We assessed multiple treatments in several cell lines to model OS induced by diverse factors such as neuroinflammatory signaling, neurotransmitter signaling, and direct oxidant species. Assay development highlighted the neuronal HT-22 mouse hippocampal cell line as most robust for these purpose s, and inflammatory cytokine TNFα as being a reliable and disease-relevant method for inducing ROS generation.

[6] = dose response study, 30 μM (FIG. 1A)

T1 sequence (P43490 whole entry): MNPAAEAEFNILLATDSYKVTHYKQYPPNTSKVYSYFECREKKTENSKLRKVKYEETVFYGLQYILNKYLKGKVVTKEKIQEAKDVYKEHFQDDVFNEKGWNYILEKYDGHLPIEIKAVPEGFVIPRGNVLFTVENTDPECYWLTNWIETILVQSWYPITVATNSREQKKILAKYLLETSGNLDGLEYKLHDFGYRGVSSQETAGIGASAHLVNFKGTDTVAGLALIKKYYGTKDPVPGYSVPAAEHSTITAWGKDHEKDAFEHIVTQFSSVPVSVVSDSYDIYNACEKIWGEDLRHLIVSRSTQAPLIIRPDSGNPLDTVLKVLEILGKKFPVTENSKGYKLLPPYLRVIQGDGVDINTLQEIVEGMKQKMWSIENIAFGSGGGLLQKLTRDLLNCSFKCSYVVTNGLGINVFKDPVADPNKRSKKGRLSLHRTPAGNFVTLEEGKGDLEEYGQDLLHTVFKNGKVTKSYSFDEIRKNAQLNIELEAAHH

## NC(=O)c1ccc[n+]([C@@H]2O[C@H](CO)[C@@H](O)[C@H]2O)c1 [NR]
[1]
  NAD^+ levels and PGC-1α expression: Increased NAD^+
  cognitive (novel object recognition) performance: Improved
  synaptic plasticity: Improved synaptic
[2]
  NAD^+/NADH ratio: Increased
  learning, memory, motor function, and anxiety: Improved
  neurogenesis: Increased
  neuroinflammation: Decreased
  p-Tau levels: Decreased p-Tau
  synaptic plasticity: Restored synaptic
Csb^m/m mice
  cerebellar NAD^+ ATP, mitochondrial function: Rescued
  gene profile associated with oxidative stress, DNA repair, mitochondrial function: Normalized gene
APPSwe/PSEN1dE9 mice
  Aβ aggregation: Reduced Aβ
  impaired memory: Enhanced
  mitochondrial function: Improved
GMC101 worms
  health- and lifespan of worms: Increased health-
  proteotoxicity and aggregation of Aβ: Reduced
[3]
  Nrf2 mediated Antioxidant Response Element activation: Increased Nrf2

## CC(C)C1(CCN(Cc2ccc(N(C)C)cc2)C(=O)c2ccco2)CCOC(C)(C)C1 (stereo not drawn) [JGB-1-155, N-(4-(dimethylamino)benzyl)-N-(2-(4-isopropyl-2,2-dimethyltetrahydro-2H-pyran-4-yl)ethyl)furan-2-carboxamide]
NAMPT; NAMPT activation
  EC50: 3.41 µM
THP-1 human monocytes; SAR summary (FIGS. 4 and 5)
  activity in THP-1: improved activity
THP-1 human monocytes
  potency in THP-1 relative to NP-A3-B2 (cellular EC50 not quantifiable): improved potency
  ability to raise NAD^+ levels compared to the parent compound NP-A3-B2: significantly greater ability to raise NAD^+ levels
THP-1 human monocytes; [6]
  NAD^+ fold over control: 1.88 fold
  increase in NAD^+ over control: 88%
[4]
  ROS-reducing activity against glutamate insult: dose-dependent ROS-reducing activity
[4]; 20 μM and 40 μM (FIG. 2D)
  ROS levels relative to vehicle treated control: decreased ROS levels below that of the vehicle treated control
[5]; 1 μg/mL TNFα (FIG. 2A)
  ROS attenuation relative to other analogs and the hit: outperformed all other analogs and the hit in ROS attenuation
[5]; SAR summary, over the 4-methoxy compounds (FIGS. 4 and 5)
  activity in HT-22: improved activity
[5]; further replicates, 20 μM and 40 μM (FIG. 2B)
  reduction of TNFα-induced ROS: highly significant reduction of TNFα-induced ROS
[5]
  effect on ROS levels across tested concentrations: dose-dependent downward trend in ROS levels

## COc1ccc(CN(CCC2(C(C)C)CCOC(C)(C)C2)C(=O)c2cccs2)cc1 (stereo not drawn) [JGB-1-137, N-(2-(4-isopropyl-2,2-dimethyltetrahydro-2H-pyran-4-yl)ethyl)-N-(4-methoxybenzyl)thiophene-2-carboxamide]
THP-1 human monocytes; SAR summary, thiophene replacement of the R^2 furan (FIGS. 4 and 5)
  NAD^+ production in THP-1: significantly improved NAD^+ production
THP-1 human monocytes
  potency in THP-1 relative to NP-A3-B2 (cellular EC50 not quantifiable): improved potency
  ability to raise NAD^+ levels compared to the parent compound NP-A3-B2: significantly greater ability to raise NAD^+ levels
[5]
  effect on ROS levels across tested concentrations: dose-dependent downward trend in ROS levels

## O=C(NCc1ccncc1)Nc1ccc(S(=O)(=O)N2CC3CCC(C2)O3)cc1 [SBI-797812]
[5]
  effect on ROS levels across tested concentrations: no significant effects on ROS at any concentration tested

## COc1ccc(CN(CCC2(C(C)C)CCOC(C)(C)C2)C(=O)c2ccsc2)cc1 (stereo not drawn) [JGB-1-127, N-(2-(4-isopropyl-2,2-dimethyltetrahydro-2H-pyran-4-yl)ethyl)-N-(4-methoxybenzyl)thiophene-3-carboxamide]
THP-1 human monocytes
  potency in THP-1 relative to NP-A3-B2 (cellular EC50 not quantifiable): improved potency
  ability to raise NAD^+ levels compared to the parent compound NP-A3-B2: significantly greater ability to raise NAD^+ levels

## CC(C)C1(CCN(Cc2ccc3[nH]ccc3c2)C(=O)c2ccco2)CCOC(C)(C)C1 (stereo not drawn) [JGB-1-134, N-((1H-indol-5-yl)methyl)-N-(2-(4-isopropyl-2,2-dimethyltetrahydro-2H-pyran-4-yl)ethyl)furan-2-carboxamide]
THP-1 human monocytes
  ability to raise NAD^+ levels compared to the parent compound NP-A3-B2: significantly greater ability to raise NAD^+ levels
[5]; 1 μg/mL TNFα, 40 μM compound (FIG. 2A)
  effect on ROS levels at 40 μM: trended toward ROS mitigation
[5]
  effect on ROS levels across tested concentrations: little effect until 40 μM

## COc1ccc(CN(CCC2(C(C)C)CCOC(C)(C)C2)C(=O)c2cnc[nH]2)cc1 (stereo not drawn) [JGB-1-147, N-(2-(4-isopropyl-2,2-dimethyltetrahydro-2H-pyran-4-yl)ethyl)-N-(4-methoxybenzyl)-1H-imidazole-5-carboxamide]
NAMPT; NAMPT inhibition
  IC50: 5.32 µM
NAMPT
  Amax: 0.25 fold
  effect on NAMPT activity: inhibitory activity; also recorded: inhibits NAMPT
